Measurements as given in patent US5654318A, “Bicyclic amine derivatives” (Daiichi Pharmaceutical Co., Ltd., priority 1992, dated 1997).
≈ marks a conversion by molar mass, not a printed value.

Assays:
E. coli NIHJ = experiment: Antibacterial activity (MIC), E. coli NIHJ; assay type: cell-based; conditions: Escherichia coli
Method: (§1) The present invention will now be illustrated by way of Formulation Examples, Reference Examples, and Examples, but the present invention should not be construed as being limited thereto. All the percents are by weight unless otherwise indicated. The antibacterial activity assays were performed by the method specified by Japan Society of Chemotherapy (Chemotherapy 29(1), 76 (1981), and the results are summarized in Table 1 in terms of minimum inhibitory concentration (MIC).

Ps. aeruginosa, 32104 = experiment: Antibacterial activity (MIC), Ps. aeruginosa, 32104; assay type: cell-based; conditions: Pseudomonas aeruginosa
Method: as §1

[1] = pH 7.4
S. aureus, 209P = experiment: Antibacterial activity (MIC), S. aureus, 209P; assay type: cell-based; conditions: Staphylococcus aureus
Method: as §1

S. aureus, Smith = experiment: Antibacterial activity (MIC), S. aureus, Smith; assay type: cell-based; conditions: Staphylococcus aureus
Method: as §1

Ser. marcescens, 10100 = experiment: Antibacterial activity (MIC), Ser. marcescens, 10100; assay type: cell-based; conditions: Serratia marcescens
Method: as §1

Str. pyogenes, G-36 = experiment: Antibacterial activity (MIC), Str. pyogenes, G-36; assay type: cell-based; conditions: Streptococcus pyogenes, G36
Method: as §1

[2] = tested on: Str. faecalis, ATCC 19433; experiment: Antibacterial activity (MIC), Str. faecalis, ATCC 19433; assay type: cell-based; conditions: Enterococcus faecalis, ATCC19433
Method: as §1

Pr. mirabiris, IFO-3849 = experiment: Antibacterial activity (MIC), Pr. mirabiris, IFO-3849; assay type: cell-based
Method: as §1

Ps. aeruginosa, 32121 = experiment: Antibacterial activity (MIC), Ps. aeruginosa, 32121; assay type: cell-based; conditions: Pseudomonas aeruginosa
Method: as §1

Pr. vulgaris, 08601 = experiment: Antibacterial activity (MIC), Pr. vulgaris, 08601; assay type: cell-based; conditions: Proteus vulgaris
Method: as §1

S. flexneli, 2A, 5503 = experiment: Antibacterial activity (MIC), S. flexneli, 2A, 5503; assay type: cell-based
Method: as §1

S. epidermidis, 56500 = experiment: Antibacterial activity (MIC), S. epidermidis, 56500; assay type: cell-based; conditions: Staphylococcus epidermidis
Method: as §1

Row | SMILES | MIC (E. coli NIHJ) [µg/mL] | MIC (Ps. aeruginosa, 32104) [µg/mL] | Partition Coefficient p' [1] | MIC (S. aureus, 209P) [µg/mL] | MIC (S. aureus, Smith) [µg/mL] | MIC (Ser. marcescens, 10100) [µg/mL] | MIC (Str. pyogenes, G-36) [µg/mL] | MIC [2] [µg/mL] | MIC (Pr. mirabiris, IFO-3849) [µg/mL] | MIC (Ps. aeruginosa, 32121) [µg/mL] | MIC (Pr. vulgaris, 08601) [µg/mL] | MIC (S. flexneli, 2A, 5503) [µg/mL] | MIC (S. epidermidis, 56500) [µg/mL]
1 | Cc1c(N2C[C@@H]3CCCN[C@@H]3C2)c(F)cc2c(=O)c(C(=O)O)cn([C@@H]3C[C@@H]3F)c12 [Ex. 4, 7-[(S,S)-2,8-diazabicyclo[4.3.0]nonan-8-yl]-6-fluoro-1-[(1R,2S)-2-fluorocyclopropyl]-8-methyl-1,4-dihydro-4-oxoquinoline-3-carboxylic acid] | 0.013 (≈ 0.0322 µM) | 0.1 (≈ 0.248 µM) | 3.73 | 0.025 (≈ 0.062 µM) | 0.013 (≈ 0.0322 µM) | 0.05 (≈ 0.124 µM) | 0.1 (≈ 0.248 µM) | 0.2 (≈ 0.496 µM) | 0.05 (≈ 0.124 µM) | 0.05 (≈ 0.124 µM) | 0.025 (≈ 0.062 µM) | 0.025 (≈ 0.062 µM) | 0.05 (≈ 0.124 µM)
2 | O=C(O)c1cn(C2CC2)c2c(Cl)c(N3C[C@@H]4CCCN[C@@H]4C3)c(F)cc2c1=O [Bay y 3118, reference compound] | – | – | 35.8 | – | – | – | – | – | – | – | – | – | –
3 | O=C(O)c1cn(C2CC2)c2c(Cl)c(N3C[C@H]4NCCO[C@@H]4C3)c(F)cc2c1=O (relative stereo) [Compound A, 8-chloro-1-cyclopropyl-6-fluoro-1,4-dihydro-7-(trans-2-oxa-5,8-diazabicyclo[4.3.0]nonan8-yl)-4-oxo-3-quinoline-3-carboxylic acid, reference compound] | – | – | 112 | – | – | – | – | – | – | – | – | – | –
4 | Nc1c(F)c(N2C[C@@H]3CCCN[C@@H]3C2)c(F)c2c1c(=O)c(C(=O)O)cn2[C@@H]1C[C@@H]1F [Ex. 3, 5-Amino-7-[(S,S)-2,8-diazabicyclo[4.3.0]nonan-8-yl]-6,8-difluoro-1-[(1R,2S)-2-fluorocyclopropyl]-1,4-dihydro-4-oxoquinoline-3-carboxylic acid] | 0.006 (≈ 0.0142 µM) | 0.05 (≈ 0.118 µM) | – | 0.025 (≈ 0.0592 µM) | 0.006 (≈ 0.0142 µM) | 0.05 (≈ 0.118 µM) | 0.1 (≈ 0.237 µM) | 0.1 (≈ 0.237 µM) | 0.05 (≈ 0.118 µM) | 0.05 (≈ 0.118 µM) | 0.025 (≈ 0.0592 µM) | 0.013 (≈ 0.0308 µM) | 0.025 (≈ 0.0592 µM)
5 | O=C(O)c1cn([C@@H]2C[C@@H]2F)c2c(Cl)c(N3C[C@@H]4CCCN[C@@H]4C3)c(F)cc2c1=O [Ex. 2, 8-Chloro-7-([S,S]-2,8-diazabicyclo[4.3.0]nonan-8-yl)-8-chloro-6-fluoro-1-[(1R,2S)-2-fluorocyclopropyl]-1,4-dihydro-4-oxoquinoline-3-carboxylic Acid] | ≤ 0.003 | 0.05 (≈ 0.118 µM) | 6.69 | 0.013 (≈ 0.0307 µM) | 0.006 (≈ 0.0142 µM) | 0.025 (≈ 0.059 µM) | 0.05 (≈ 0.118 µM) | 0.1 (≈ 0.236 µM) | 0.025 (≈ 0.059 µM) | 0.05 (≈ 0.118 µM) | 0.013 (≈ 0.0307 µM) | 0.006 (≈ 0.0142 µM) | 0.05 (≈ 0.118 µM)
6 | O=C(O)c1cn([C@@H]2C[C@@H]2F)c2c(Cl)c(N3C[C@H]4NCCO[C@@H]4C3)c(F)cc2c1=O (mixture of isomers) [Ex. 7, (+)-8-Chloro-6-fluoro-1-[(1R,2S)-2-fluorocyclopropyl]-7-[trans-2-oxa-5,8-diazabicyclo[4.3.0]-nonan-8-yl]-1,4-dihydro-4-oxoquinoline-3-carboxylic acid] | – | – | 26.9 | – | – | – | – | – | – | – | – | – | –
7 | O=C(O)c1cn([C@@H]2C[C@@H]2F)c2c(Cl)c(N3CC4=C(CNC4)C3)c(F)cc2c1=O [Ex. 6, 8-Chloro-7-[3,7-diazabicyclo[3.3.0]oct-1(5)-ene-3-yl]-6-fluoro-1-[(1R,2S)-2-fluorocyclopropyl]-1,4-dihydro-4-oxoquinoline-3-carboxylic acid] | 0.025 (≈ 0.0613 µM) | 0.2 (≈ 0.49 µM) | – | 0.025 (≈ 0.0613 µM) | 0.013 (≈ 0.0319 µM) | 0.2 (≈ 0.49 µM) | 0.1 (≈ 0.245 µM) | 0.39 (≈ 0.956 µM) | 0.05 (≈ 0.123 µM) | 0.1 (≈ 0.245 µM) | 0.013 (≈ 0.0319 µM) | 0.013 (≈ 0.0319 µM) | 0.1 (≈ 0.245 µM)
8 | O=C(O)c1cn([C@@H]2C[C@@H]2F)c2c(Cl)c(N3C[C@H]4NCCO[C@@H]4C3)c(F)cc2c1=O (mixture of isomers) [Ex. 8, (-)-8-Chloro-6-fluoro-1-[(1R,2S)-2-fluorocyclopropyl]-7-[trans-2-oxa-5,8-diazabicyclo[4.3.0]nonan-8-yl]-1,4-dihydro-4-oxoquinoline-3-carboxylic acid] | – | – | 24.8 | – | – | – | – | – | – | – | – | – | –
9 | Nc1c(F)c(N2C[C@H]3NCCO[C@@H]3C2)c(F)c2c1c(=O)c(C(=O)O)cn2[C@@H]1C[C@@H]1F (mixture of isomers) [Ex. 9, 5-Amino-6,8-difluoro-1-[(1R,2S)-2-fluorocyclopropyl]-7-(trans-2-oxa-5,8-diazabicyclo[4.3.0]nonan-8-yl) -1,4-dihydro-4-oxoquinoline-3-carboxylic acid] | 0.006 | 0.2 | – | 0.013 | 0.006 | 0.1 | 0.2 | 0.1 | 0.05 | 0.05 | 0.025 | 0.013 | 0.025
10 | O=C(O)c1cn([C@@H]2C[C@@H]2F)c2c(F)c(N3C[C@@H]4CCCN[C@@H]4C3)c(F)cc2c1=O [Ex. 5, 7-[(S,S)-2,8-diazabicyclo[4.3.0]nonan-8-yl]-6,8-difluoro-1-[(1R,2S)-2-fluorocyclopropyl]-1,4-dihydro-4-oxoquinoline-3-carboxylic acid] | 0.013 (≈ 0.0319 µM) | 0.1 (≈ 0.245 µM) | 5.84 | 0.025 (≈ 0.0614 µM) | 0.013 (≈ 0.0319 µM) | 0.05 (≈ 0.123 µM) | 0.1 (≈ 0.245 µM) | 0.2 (≈ 0.491 µM) | 0.05 (≈ 0.123 µM) | 0.05 (≈ 0.123 µM) | 0.013 (≈ 0.0319 µM) | 0.013 (≈ 0.0319 µM) | 0.1 (≈ 0.245 µM)
